Experimental findings from patent US6555128B2, “Feeds containing docosahexaenoic acid and/or conjugated docosahexaenoic acid, and a method for farming fishes by using such feeds” (Hokkaido University, priority 2000, dated 2003) are described below.

The test system of experiment [1] is steelheads. Kind of experiment: Feeding of steelheads: content and composition of the lipid in the internal organ. The experiment is classed as in vivo, Oncorhynchus, steelheads (rainbow trouts). The method, then: (§1) Effects of ethyl docosahexaenoate and conjugated ethyl docosahexaenoate upon accumulation of the fat and the lipid composition were examined by feeding both ethyl esters to rainbow trouts.
(§2) Measuring conditions were as follows.
(§3) 1) Sample fish: Oncorhynchus, steelheads 3 months old after birth
(§4) 2) Farming condition: water temperature 10° C., each group 60 fishes
(§5) 3) Feed (fundamental feed: compounded feed for oriental trouts)
(§6) 1st group: fundamental feed +olive oil (5 wt %)
(§7) 2nd group: fundamental feed +olive oil (3 wt %) +ethyl docosahexaenoate (0.5 wt %)
(§8) 3rd group: fundamental feed +olive oil (4.5 wt %) +ethyl conjugated docosahexaenoate (0.5 wt %)
(§9) 4th group: fundamental feed +olive oil (3 wt %) +ethyl conjugated docosahexaenoate (2 wt %)
(§10) Conjugated ethyl docosahexaenoate used is obtained by isomerization of double bonds of ethyl docosahexaenoate in the presence of an alkali catalyst, and its composition consisted of 81.4% of conjugated ethyl docosahexaenoate and 18.6% of ethyl docosahexaenoate. More specifically, conjugated ethyl docosahexaenoate consisted of 57.4% of conjugated diene ester, 12.0% of conjugated triene ester, 12.0% of conjugated tetraene ester and 18.6% of ethyl docosahexaenoate. […]
(§11) Steelheads used, which were 3 months old after birth (average weight 0.82 g) and divided into four groups each consisting 60 steelheads, were farmed at a water temperature of about 10° C. for 21 weeks.
(§12) Effects of the feeds upon the internal organs and the lipid contents of the steelheads 21 weeks old after starting the farming were examined. The concrete lipid compositions in the internal organs are shown in Table 1, and the concrete lipid compositions in muscles shown in Table 2.

The test system of experiment [2] is steelheads. Kind of experiment: Feeding of steelheads: content and composition of the lipid in muscles. The experiment is classed as in vivo, Oncorhynchus, steelheads (rainbow trouts). The method, then:
as §1, §2, §3, §4, §5, §6, §7, §8, §9, §10, §11, §12

[3] abbreviates: 0.5 wt % in feed, farmed 21 weeks, water 10° C.
[4] abbreviates: 2nd to 4th groups versus feed with neither ester.

`CC/C=C\C/C=C\C/C=C\C/C=C\C/C=C\C/C=C\CCC(=O)OCC` [ethyl docosahexaenoate]: in experiment [1] (setting [3]), the “Lipid composition (%) FFA, internal organ” value worked out at 3.0%; the “Lipid composition (%) PL, internal organ” value amounted to 5.8%; the “Lipid composition (%) SE, internal organ” value is 1.6%; the “Lipid composition (%) TG, internal organ” value was 89.6%. Moreover, the “Lipid content (%) in the internal organ” value in experiment [1] (setting [3]) was 23.2%. The “lipid contents in the internal organs compared with 1st group (FIG. 1)” value in experiment [1] (setting [4]) is listed as “lower lipid contents”. In experiment [2] (setting [3]), the “Lipid composition (%) FFA, muscles” value came out at 1.7%; the “Lipid composition (%) PL, muscles” value stood at 21.0%; the “Lipid composition (%) SE, muscles” value came out at 0.7%; the “Lipid composition (%) TG, muscles” value was 76.6%. Besides, the “Lipid content (%) in muscles” value in experiment [2] (setting [3]) was determined as 4.3%. In experiment [2] (setting [4]), the “lipid contents in the muscles compared with 1st group (FIG. 1)” value was “lower lipid contents”.
